Results taken from ChEMBL document CHEMBL5715936, “Selective Itk inhibitors block T-cell activation and murine lung inflammation” (Biochemistry, 2004).

How the values were obtained:
[1] = molecular target: T1, Tyrosine-protein kinase TXK (Homo sapiens, UniProt P42681); test: Inhibition of Txk (unknown origin) using GST-SLP-76 as peptide substrate incubated for 10 mins in presence of [gamma-33P]ATP by scintillation counter assay
T1 sequence (P42681 whole entry): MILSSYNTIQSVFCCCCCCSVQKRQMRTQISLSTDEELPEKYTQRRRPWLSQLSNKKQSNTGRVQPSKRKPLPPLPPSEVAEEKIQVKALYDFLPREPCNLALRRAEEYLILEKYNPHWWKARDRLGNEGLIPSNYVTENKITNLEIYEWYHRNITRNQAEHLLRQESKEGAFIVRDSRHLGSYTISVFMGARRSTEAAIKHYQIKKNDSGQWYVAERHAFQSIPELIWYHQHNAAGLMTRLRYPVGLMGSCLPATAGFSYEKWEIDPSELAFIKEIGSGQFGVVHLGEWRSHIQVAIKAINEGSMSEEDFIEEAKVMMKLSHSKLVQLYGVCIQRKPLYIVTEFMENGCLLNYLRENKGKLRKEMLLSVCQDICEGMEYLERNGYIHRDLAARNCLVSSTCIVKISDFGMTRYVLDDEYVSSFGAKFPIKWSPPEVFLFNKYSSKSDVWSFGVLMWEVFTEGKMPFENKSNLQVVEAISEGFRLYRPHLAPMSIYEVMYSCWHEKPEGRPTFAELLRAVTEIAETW

[2] = molecular target: T2, Tyrosine-protein kinase Tec (Homo sapiens, UniProt P42680); test: Inhibition of Tec (unknown origin) using GST-SLP-76 as peptide substrate incubated for 10 mins in presence of [gamma-33P]ATP by scintillation counter assay
T2 sequence (P42680 whole entry): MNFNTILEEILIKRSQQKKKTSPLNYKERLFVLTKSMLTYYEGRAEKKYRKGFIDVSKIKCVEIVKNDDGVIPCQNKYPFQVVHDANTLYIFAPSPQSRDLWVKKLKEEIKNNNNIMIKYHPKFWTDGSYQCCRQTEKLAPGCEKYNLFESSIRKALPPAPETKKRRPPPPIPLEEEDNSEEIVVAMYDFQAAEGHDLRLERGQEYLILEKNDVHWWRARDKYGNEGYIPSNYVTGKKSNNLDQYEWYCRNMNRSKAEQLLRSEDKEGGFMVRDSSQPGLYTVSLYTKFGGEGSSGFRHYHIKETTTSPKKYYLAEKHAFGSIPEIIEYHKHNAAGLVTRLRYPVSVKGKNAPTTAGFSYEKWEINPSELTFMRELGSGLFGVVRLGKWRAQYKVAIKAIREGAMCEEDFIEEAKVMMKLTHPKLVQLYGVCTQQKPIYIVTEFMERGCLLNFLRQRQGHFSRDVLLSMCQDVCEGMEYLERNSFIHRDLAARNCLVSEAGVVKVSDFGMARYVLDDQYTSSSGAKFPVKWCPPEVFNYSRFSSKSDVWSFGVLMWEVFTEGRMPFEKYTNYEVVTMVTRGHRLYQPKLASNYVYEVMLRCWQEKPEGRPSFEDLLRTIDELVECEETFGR

[3] = molecular target: Tyrosine-protein kinase BTK (Homo sapiens, UniProt Q06187); test: Inhibition of Btk (unknown origin) using GST-SLP-76 as peptide substrate incubated for 10 mins in presence of [gamma-33P]ATP by scintillation counter assay
[4] = molecular target: T3, Cytoplasmic tyrosine-protein kinase BMX (Homo sapiens, UniProt P51813); test: Inhibition of Bmx (unknown origin) using GST-SLP-76 as peptide substrate incubated for 10 mins in presence of [gamma-33P]ATP by scintillation counter assay
T3 sequence (P51813 whole entry): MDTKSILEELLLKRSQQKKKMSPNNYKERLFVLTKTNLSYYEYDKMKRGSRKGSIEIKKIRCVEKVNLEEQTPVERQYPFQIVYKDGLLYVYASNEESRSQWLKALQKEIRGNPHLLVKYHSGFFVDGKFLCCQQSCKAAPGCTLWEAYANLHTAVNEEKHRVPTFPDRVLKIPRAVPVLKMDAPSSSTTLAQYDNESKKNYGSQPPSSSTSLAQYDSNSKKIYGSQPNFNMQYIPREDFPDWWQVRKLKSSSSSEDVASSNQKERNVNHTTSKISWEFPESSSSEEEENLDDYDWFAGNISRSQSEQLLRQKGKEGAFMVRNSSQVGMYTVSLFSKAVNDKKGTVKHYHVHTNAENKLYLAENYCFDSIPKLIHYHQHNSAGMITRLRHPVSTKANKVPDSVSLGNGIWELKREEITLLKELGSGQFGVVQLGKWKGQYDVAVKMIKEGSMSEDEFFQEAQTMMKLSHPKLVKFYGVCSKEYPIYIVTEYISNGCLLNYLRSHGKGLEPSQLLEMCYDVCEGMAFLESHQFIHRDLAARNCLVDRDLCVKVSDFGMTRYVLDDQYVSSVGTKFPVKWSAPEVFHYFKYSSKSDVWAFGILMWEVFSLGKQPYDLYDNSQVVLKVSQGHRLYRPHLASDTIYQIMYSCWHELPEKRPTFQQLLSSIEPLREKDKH

[5] = molecular target: Tyrosine-protein kinase Lck (Homo sapiens, UniProt P06239); test: Inhibition of Lck (unknown origin) using GST-SLP-76 as peptide substrate incubated for 10 mins in presence of [gamma-33P]ATP by scintillation counter assay
[6] = molecular target: Tyrosine-protein kinase SYK (Homo sapiens, UniProt P43405); test: Inhibition of Syk (unknown origin) using GST-SLP-76 as peptide substrate incubated for 10 mins in presence of [gamma-33P]ATP by scintillation counter assay
[7] = molecular target: T4, Tyrosine-protein kinase ZAP-70 (Homo sapiens, UniProt P43403); test: Inhibition of ZAP-70 (unknown origin) using GST-SLP-76 as peptide substrate incubated for 10 mins in presence of [gamma-33P]ATP by scintillation counter assay
T4 sequence (P43403 whole entry): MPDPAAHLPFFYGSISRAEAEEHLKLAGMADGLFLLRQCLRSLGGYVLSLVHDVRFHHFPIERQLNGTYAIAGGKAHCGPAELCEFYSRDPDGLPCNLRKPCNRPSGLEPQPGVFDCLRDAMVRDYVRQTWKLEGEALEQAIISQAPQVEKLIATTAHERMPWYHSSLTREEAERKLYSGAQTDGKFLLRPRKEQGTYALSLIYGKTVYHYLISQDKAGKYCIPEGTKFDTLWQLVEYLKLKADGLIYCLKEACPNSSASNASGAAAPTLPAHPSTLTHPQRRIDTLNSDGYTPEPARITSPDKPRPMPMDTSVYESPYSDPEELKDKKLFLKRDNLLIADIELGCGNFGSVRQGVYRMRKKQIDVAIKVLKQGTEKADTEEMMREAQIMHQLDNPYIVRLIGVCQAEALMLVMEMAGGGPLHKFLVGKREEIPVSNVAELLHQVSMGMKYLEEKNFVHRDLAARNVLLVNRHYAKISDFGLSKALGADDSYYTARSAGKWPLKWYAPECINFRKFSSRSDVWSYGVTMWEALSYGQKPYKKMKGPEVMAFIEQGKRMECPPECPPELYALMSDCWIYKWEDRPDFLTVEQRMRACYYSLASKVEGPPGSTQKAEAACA

[8] = molecular target: Epidermal growth factor receptor (Homo sapiens, UniProt P00533); test: Inhibition of EGFR (unknown origin) using GST-SLP-76 as peptide substrate incubated for 10 mins in presence of [gamma-33P]ATP by scintillation counter assay
[9] = molecular target: Cyclin-dependent kinase 2 (Homo sapiens, UniProt P24941); test: Inhibition of Cdk2 (unknown origin) using GST-SLP-76 as peptide substrate incubated for 10 mins in presence of [gamma-33P]ATP by scintillation counter assay
[10] = molecular target: Mitogen-activated protein kinase 3 (Homo sapiens, UniProt P27361); test: Inhibition of ERK-1 (unknown origin) using GST-SLP-76 as peptide substrate incubated for 10 mins in presence of [gamma-33P]ATP by scintillation counter assay
[11] = molecular target: cAMP-dependent protein kinase (PKA) (Homo sapiens, UniProt P22694+P17612+P22612); test: Inhibition of PKA (unknown origin) using GST-SLP-76 as peptide substrate incubated for 10 mins in presence of [gamma-33P]ATP by scintillation counter assay; type: protein assay
Protein kinase C (PKC) = test: Inhibition of PKC (unknown origin) using GST-SLP-76 as peptide substrate incubated for 10 mins in presence of [gamma-33P]ATP by scintillation counter assay; type: protein assay, Homo sapiens

Epidermal growth factor receptor, sequence (P00533 whole entry): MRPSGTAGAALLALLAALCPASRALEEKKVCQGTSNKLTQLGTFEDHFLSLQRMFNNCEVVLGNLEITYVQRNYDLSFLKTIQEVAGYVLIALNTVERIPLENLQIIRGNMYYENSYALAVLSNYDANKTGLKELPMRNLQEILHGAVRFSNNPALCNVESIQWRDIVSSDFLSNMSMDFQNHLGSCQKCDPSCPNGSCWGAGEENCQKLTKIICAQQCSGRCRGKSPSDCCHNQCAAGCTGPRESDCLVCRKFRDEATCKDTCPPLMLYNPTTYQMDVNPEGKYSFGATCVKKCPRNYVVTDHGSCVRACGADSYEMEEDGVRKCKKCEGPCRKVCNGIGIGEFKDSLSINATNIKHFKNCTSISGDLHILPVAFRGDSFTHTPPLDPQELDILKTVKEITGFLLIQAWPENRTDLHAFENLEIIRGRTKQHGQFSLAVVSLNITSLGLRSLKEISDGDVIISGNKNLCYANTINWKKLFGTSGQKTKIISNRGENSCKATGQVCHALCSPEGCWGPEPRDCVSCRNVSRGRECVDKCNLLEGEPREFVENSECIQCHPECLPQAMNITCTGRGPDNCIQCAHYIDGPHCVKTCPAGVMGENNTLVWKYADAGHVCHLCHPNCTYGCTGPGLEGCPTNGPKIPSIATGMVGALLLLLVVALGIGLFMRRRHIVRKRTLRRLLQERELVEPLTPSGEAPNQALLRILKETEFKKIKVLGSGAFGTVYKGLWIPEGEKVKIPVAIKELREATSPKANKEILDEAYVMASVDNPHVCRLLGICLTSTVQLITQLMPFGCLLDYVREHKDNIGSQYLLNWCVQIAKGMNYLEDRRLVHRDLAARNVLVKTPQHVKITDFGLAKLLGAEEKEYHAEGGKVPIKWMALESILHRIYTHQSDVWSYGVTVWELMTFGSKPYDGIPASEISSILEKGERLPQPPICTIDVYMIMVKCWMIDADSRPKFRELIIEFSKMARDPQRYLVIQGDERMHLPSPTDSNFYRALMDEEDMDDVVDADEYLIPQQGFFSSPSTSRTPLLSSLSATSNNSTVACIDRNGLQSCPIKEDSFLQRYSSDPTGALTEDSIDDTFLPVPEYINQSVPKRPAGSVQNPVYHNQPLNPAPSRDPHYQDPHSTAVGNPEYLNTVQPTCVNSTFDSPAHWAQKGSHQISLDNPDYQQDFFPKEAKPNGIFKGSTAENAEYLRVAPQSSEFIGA
Mitogen-activated protein kinase 3, sequence (P27361 whole entry): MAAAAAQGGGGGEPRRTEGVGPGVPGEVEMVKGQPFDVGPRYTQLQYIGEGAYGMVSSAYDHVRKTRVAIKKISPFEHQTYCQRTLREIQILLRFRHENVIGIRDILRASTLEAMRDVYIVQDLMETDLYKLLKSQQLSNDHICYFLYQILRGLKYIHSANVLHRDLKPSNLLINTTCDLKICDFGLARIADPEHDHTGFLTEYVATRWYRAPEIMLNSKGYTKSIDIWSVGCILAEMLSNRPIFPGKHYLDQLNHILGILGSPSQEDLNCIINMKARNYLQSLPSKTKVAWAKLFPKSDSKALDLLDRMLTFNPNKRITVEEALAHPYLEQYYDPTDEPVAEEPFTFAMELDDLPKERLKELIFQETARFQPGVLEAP
Tyrosine-protein kinase BTK, sequence (Q06187 whole entry): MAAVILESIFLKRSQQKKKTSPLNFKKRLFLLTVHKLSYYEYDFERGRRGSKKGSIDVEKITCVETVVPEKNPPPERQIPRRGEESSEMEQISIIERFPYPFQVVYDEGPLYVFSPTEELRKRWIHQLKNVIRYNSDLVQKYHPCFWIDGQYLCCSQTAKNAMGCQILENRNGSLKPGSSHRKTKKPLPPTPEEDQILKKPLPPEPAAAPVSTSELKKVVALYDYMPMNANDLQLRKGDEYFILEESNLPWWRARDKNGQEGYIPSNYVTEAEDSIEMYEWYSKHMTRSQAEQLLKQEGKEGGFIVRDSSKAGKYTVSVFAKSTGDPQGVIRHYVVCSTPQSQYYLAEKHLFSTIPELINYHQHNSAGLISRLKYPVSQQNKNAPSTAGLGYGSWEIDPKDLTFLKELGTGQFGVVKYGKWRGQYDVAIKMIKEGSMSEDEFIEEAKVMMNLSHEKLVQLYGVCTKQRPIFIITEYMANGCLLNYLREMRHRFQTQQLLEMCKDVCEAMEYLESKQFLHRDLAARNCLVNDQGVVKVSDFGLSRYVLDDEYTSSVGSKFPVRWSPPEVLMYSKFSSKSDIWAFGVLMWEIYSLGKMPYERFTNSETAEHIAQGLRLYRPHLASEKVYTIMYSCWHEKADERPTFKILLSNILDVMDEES
Tyrosine-protein kinase Lck, sequence (P06239 whole entry): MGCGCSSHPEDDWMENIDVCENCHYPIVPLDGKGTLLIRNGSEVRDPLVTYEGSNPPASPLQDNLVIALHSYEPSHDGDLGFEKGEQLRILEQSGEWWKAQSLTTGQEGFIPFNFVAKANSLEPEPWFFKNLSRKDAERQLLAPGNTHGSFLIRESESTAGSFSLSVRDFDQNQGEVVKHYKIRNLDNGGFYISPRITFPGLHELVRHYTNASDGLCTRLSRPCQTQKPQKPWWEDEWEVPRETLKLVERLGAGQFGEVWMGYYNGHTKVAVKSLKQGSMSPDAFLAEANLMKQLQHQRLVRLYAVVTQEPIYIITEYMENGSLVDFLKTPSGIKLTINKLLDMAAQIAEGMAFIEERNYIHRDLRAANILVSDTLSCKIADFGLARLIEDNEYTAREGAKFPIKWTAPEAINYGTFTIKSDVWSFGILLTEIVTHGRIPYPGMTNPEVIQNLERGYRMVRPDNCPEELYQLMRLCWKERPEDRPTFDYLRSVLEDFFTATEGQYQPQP

IC50 [1]: > 50 µM
IC50 [2]: > 50 µM
IC50 [3]: 49 µM
IC50 [4]: 20 µM
IC50 [5]: > 25 µM
IC50 [6]: > 50 µM
IC50 [7]: > 50 µM
IC50 [8]: > 50 µM
IC50 [9]: 27 µM
IC50 [10]: > 50 µM
IC50 [11]: > 50 µM
IC50 (Protein kinase C (PKC)): > 50 µM
Compound: CC(=O)N1CCN(C(=O)c2cccc(CSc3cnc(NC(=O)c4ccc(N(C)C)cc4)s3)c2)CC1
